# Test results from US12077503B2, “Substituted cyclic amides and their use as herbicides” (FMC CORPORATION, priority 2015, dated 2024).
# How the values were obtained:
# Test in all cases: Test C preemergence
# Type in all cases: in vivo
# [1] = test system: ryegrass, Italian (Italian ryegrass, Lolium multiflorum); settings: for Plant response rating, Ryegrass, Italian: scale 0 to 100, 0 no effect, 100 complete control
# Method in brief: (§1)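 Seeds in loam-sand soil treated preemergence, or plants in peat-based medium sprayed postemergence at 2–18 cm (1- to 4-leaf stage), with compound in a non-phytotoxic solvent mixture containing surfactant. Greenhouse-held 13–15 d, then visually rated against controls on a 0–100 scale (0 = no effect, 100 = complete control); dash = not tested.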
# [2] = test system: foxtail, giant (giant foxtail, Setaria faberii); settings: for Plant response rating, Foxtail, Giant: scale 0 to 100, 0 no effect, 100 complete control
# Method in brief: as §1
# [3] = test system: pigweed (Amaranthus retroflexus); settings: for Plant response rating, Pigweed: scale 0 to 100, 0 no effect, 100 complete control
# Method in brief: as §1
# [4] = test system: lambsquarters (Chenopodium album); settings: for Plant response rating, Lambsquarters: scale 0 to 100, 0 no effect, 100 complete control
# Method in brief: as §1
# [5] = test system: johnsongrass (Sorghum halepense); settings: for Plant response rating, Johnsongrass: scale 0 to 100, 0 no effect, 100 complete control
# Method in brief: as §1
# [6] = test system: oilseed rape (Brassica napus); settings: for Plant response rating, Oilseed Rape: scale 0 to 100, 0 no effect, 100 complete control
# Method in brief: as §1
# [7] = test system: nutsedge, yellow (yellow nutsedge, Cyperus esculentus); settings: for Plant response rating, Nutsedge, Yellow: scale 0 to 100, 0 no effect, 100 complete control
# Method in brief: as §1
# [8] = test system: morningglory (Ipomoea coccinea); settings: for Plant response rating, Morningglory: scale 0 to 100, 0 no effect, 100 complete control
# Method in brief: as §1
# [9] = test system: wheat (winter wheat, Triticum aestivum); settings: for Plant response rating, Wheat: scale 0 to 100, 0 no effect, 100 complete control
# Method in brief: as §1
# [10] = test system: barnyardgrass (Echinochloa crus-galli); settings: for Plant response rating, Barnyardgrass: scale 0 to 100, 0 no effect, 100 complete control
# Method in brief: as §1
# soybean (Glycine max) = settings: for Plant response rating, Soybean: scale 0 to 100, 0 no effect, 100 complete control
# Method in brief: as §1
# [11] = test system: crabgrass, large (large crabgrass, Digitaria sanguinalis); settings: for Plant response rating, Crabgrass, Large: scale 0 to 100, 0 no effect, 100 complete control
# Method in brief: as §1
# [12] = test system: blackgrass (Alopecurus myosuroides); settings: for Plant response rating, Blackgrass: scale 0 to 100, 0 no effect, 100 complete control
# Method in brief: as §1
# corn (Zea mays) = settings: for Plant response rating, Corn: scale 0 to 100, 0 no effect, 100 complete control
# Method in brief: as §1
# [13] = test system: velvetleaf (Abutilon theophrasti); settings: for Plant response rating, Velvetleaf: scale 0 to 100, 0 no effect, 100 complete control
# Method in brief: as §1
# [14] = test system: Galium (catchweed bedstraw, Galium aparine); settings: for Plant response rating, Galium: scale 0 to 100, 0 no effect, 100 complete control
# Method in brief: as §1
# [15] = test system: waterhemp (common waterhemp, Amaranthus rudis); settings: for Plant response rating, Waterhemp: scale 0 to 100, 0 no effect, 100 complete control
# Method in brief: as §1
# [16] = 31 g ai/ha, 0 is no effect, 100 is complete control
compound,measurement,setting,value
O=C1NCC(c2ccc(I)cc2)C1C(=O)Nc1cccc(F)c1F (racemic) [Compound 700],"Plant response rating (scale of 0 to 100), Ryegrass, Italian",[1]; [16],0
same,"Plant response rating, Ryegrass, Italian",[1]; 62 g ai/ha,20
same,"Plant response rating, Ryegrass, Italian",[1]; 125 g ai/ha,35
same,"Plant response rating, Ryegrass, Italian",[1]; 250 g ai/ha,45
same,"Plant response rating (scale of 0 to 100), Foxtail, Giant",[2]; [16],80
same,"Plant response rating, Foxtail, Giant",[2]; 62 g ai/ha,85
same,"Plant response rating, Foxtail, Giant",[2]; 125 g ai/ha,90
same,"Plant response rating, Foxtail, Giant",[2]; 250 g ai/ha,90
same,"Plant response rating (scale of 0 to 100), Pigweed",[3]; [16],0
same,"Plant response rating, Pigweed",[3]; 62 g ai/ha,15
same,"Plant response rating, Pigweed",[3]; 125 g ai/ha,50
same,"Plant response rating, Pigweed",[3]; 250 g ai/ha,65
same,"Plant response rating (scale of 0 to 100), Lambsquarters",[4]; [16],0
same,"Plant response rating, Lambsquarters",[4]; 62 g ai/ha,25
same,"Plant response rating, Lambsquarters",[4]; 125 g ai/ha,80
same,"Plant response rating, Lambsquarters",[4]; 250 g ai/ha,85
same,"Plant response rating (scale of 0 to 100), Johnsongrass",[5]; [16],100
same,"Plant response rating, Johnsongrass",[5]; 62 g ai/ha,0
same,"Plant response rating, Johnsongrass",[5]; 125 g ai/ha,10
same,"Plant response rating, Johnsongrass",[5]; 250 g ai/ha,60
same,"Plant response rating (scale of 0 to 100), Oilseed Rape",[6]; [16],0
same,"Plant response rating, Oilseed Rape",[6]; 62 g ai/ha,30
same,"Plant response rating, Oilseed Rape",[6]; 125 g ai/ha,60
same,"Plant response rating, Oilseed Rape",[6]; 250 g ai/ha,50
same,"Plant response rating (scale of 0 to 100), Nutsedge, Yellow",[7]; [16],0
same,"Plant response rating, Nutsedge, Yellow",[7]; 62 g ai/ha,0
same,"Plant response rating, Nutsedge, Yellow",[7]; 125 g ai/ha,0
same,"Plant response rating, Nutsedge, Yellow",[7]; 250 g ai/ha,0
same,"Plant response rating (scale of 0 to 100), Morningglory",[8]; [16],0
same,"Plant response rating, Morningglory",[8]; 62 g ai/ha,0
same,"Plant response rating, Morningglory",[8]; 125 g ai/ha,0
same,"Plant response rating, Morningglory",[8]; 250 g ai/ha,0
same,"Plant response rating (scale of 0 to 100), Wheat",[9]; [16],0
same,"Plant response rating, Wheat",[9]; 62 g ai/ha,0
same,"Plant response rating, Wheat",[9]; 125 g ai/ha,0
same,"Plant response rating, Wheat",[9]; 250 g ai/ha,70
same,"Plant response rating (scale of 0 to 100), Barnyardgrass",[10]; [16],75
same,"Plant response rating, Barnyardgrass",[10]; 62 g ai/ha,85
same,"Plant response rating, Barnyardgrass",[10]; 125 g ai/ha,90
same,"Plant response rating, Barnyardgrass",[10]; 250 g ai/ha,95
same,"Plant response rating (scale of 0 to 100), Soybean",soybean (Glycine max); [16],100
same,"Plant response rating, Soybean",soybean (Glycine max); 62 g ai/ha,0
same,"Plant response rating, Soybean",soybean (Glycine max); 125 g ai/ha,15
same,"Plant response rating, Soybean",soybean (Glycine max); 250 g ai/ha,0
same,"Plant response rating (scale of 0 to 100), Crabgrass, Large",[11]; [16],95
same,"Plant response rating, Crabgrass, Large",[11]; 62 g ai/ha,95
same,"Plant response rating, Crabgrass, Large",[11]; 125 g ai/ha,95
same,"Plant response rating, Crabgrass, Large",[11]; 250 g ai/ha,98
same,"Plant response rating (scale of 0 to 100), Blackgrass",[12]; [16],20
same,"Plant response rating, Blackgrass",[12]; 62 g ai/ha,55
same,"Plant response rating, Blackgrass",[12]; 125 g ai/ha,60
same,"Plant response rating, Blackgrass",[12]; 250 g ai/ha,85
same,"Plant response rating (scale of 0 to 100), Corn",corn (Zea mays); [16],0
same,"Plant response rating, Corn",corn (Zea mays); 62 g ai/ha,0
same,"Plant response rating, Corn",corn (Zea mays); 125 g ai/ha,10
same,"Plant response rating, Corn",corn (Zea mays); 250 g ai/ha,50
same,"Plant response rating (scale of 0 to 100), Velvetleaf",[13]; [16],0
same,"Plant response rating, Velvetleaf",[13]; 62 g ai/ha,0
same,"Plant response rating, Velvetleaf",[13]; 125 g ai/ha,20
same,"Plant response rating, Velvetleaf",[13]; 250 g ai/ha,40
same,"Plant response rating (scale of 0 to 100), Galium",[14]; [16],0
same,"Plant response rating, Galium",[14]; 62 g ai/ha,0
same,"Plant response rating, Galium",[14]; 125 g ai/ha,50
same,"Plant response rating, Galium",[14]; 250 g ai/ha,40
same,"Plant response rating (scale of 0 to 100), Waterhemp",[15]; [16],10
same,"Plant response rating, Waterhemp",[15]; 62 g ai/ha,65
same,"Plant response rating, Waterhemp",[15]; 125 g ai/ha,75
same,"Plant response rating, Waterhemp",[15]; 250 g ai/ha,70
